# Test results: ChEMBL document CHEMBL3045087, “Physicochemical interaction of antitumor acridinone derivatives with DNA in view of QSAR studies” (2011)
# Key:
# [1] = test system: P388; assay: Antitumor activity against Mus musculus (mouse) P388 cells xenografted in Mus musculus (mouse) assessed as increase in survival time relative to control; type: functional; design: concentration or dose not given beside the values
# [2] = test system: DNA; settings: Bos taurus
# Description: Binding affinity to Bos taurus (calf) thymus DNA assessed as change in melting temperature at drug to DNA base pair ratio 0.25 M
SMILES,Increase in survival time [1],ΔTm [2]
CN(C)CCNc1ccc2nnn3c4ccc(O)cc4c(=O)c1c23,102%,13.1 °C
CN(C)CCCCCNc1ccc2ncn3c4ccccc4c(=O)c1c23,10%,9.9 °C
CN(C)CCCNc1ccc2ncn3c4ccccc4c(=O)c1c23,25%,11.5 °C
CN(C)CCCCCNc1ccc2ncn3c4ccc(O)cc4c(=O)c1c23,85%,13.1 °C
CCN(CC)CCNc1ccc2ncn3c4ccc(OC)cc4c(=O)c1c23,96%,11.5 °C
CN(C)CCN(C)c1ccc2nnn3c4ccc(O)cc4c(=O)c1c23,10%,8.1 °C
CN(C)CCNc1ccc2nnn3c4ccccc4c(=O)c1c23,77%,9.1 °C
CCN(CC)CCNc1ccc2nc(C)n3c4ccc(O)cc4c(=O)c1c23,185%,15.3 °C
CCN(CC)CCNc1ccc2ncn3c4ccc(O)cc4c(=O)c1c23 [C-1311],93%,13.7 °C
CCN(CC)CCNc1ccc2ncn3c4cc(O)ccc4c(=O)c1c23,27%,8.3 °C
CCNCCNc1ccc2nnn3c4ccc(O)cc4c(=O)c1c23,78%,7.1 °C
CN(C)CCNc1ccc2nnn3c4ccc(C(C)(C)C)cc4c(=O)c1c23,0%,6.8 °C
CCN(CC)CCCCCNc1ccc2ncn3c4ccc(C)cc4c(=O)c1c23,20%,10.5 °C
CN(C)CCCNc1ccc2ncn3c4ccc(O)cc4c(=O)c1c23,120%,3.5 °C
Cc1ccc2c(c1)c(=O)c1c(NCCCN(C)C)ccc3nnn2c31,18%,11.5 °C
CN(C)CCNc1ccc2ncn3c4ccc(O)cc4c(=O)c1c23,110%,12.3 °C
CCN(CC)CCNc1ccc2ncn3c4ccccc4c(=O)c1c23,55%,7.2 °C
CCN(CC)CCNc1ccc2ncn3c4ccc(C(C)(C)C)cc4c(=O)c1c23,0%,2.4 °C
CN(C)CCNc1ccc2ncn3c4ccccc4c(=O)c1c23,90%,9.5 °C
CN(C)CCCNc1ccc2nnn3c4ccc(O)cc4c(=O)c1c23,165%,15.1 °C
